As a reminder, the EC50 is the concentration needed to bring the measured effect to its halfway point.

SMILES strings stand for the structures.

Chain of Glucagon-like peptide 1 receptor (P43220 whole entry): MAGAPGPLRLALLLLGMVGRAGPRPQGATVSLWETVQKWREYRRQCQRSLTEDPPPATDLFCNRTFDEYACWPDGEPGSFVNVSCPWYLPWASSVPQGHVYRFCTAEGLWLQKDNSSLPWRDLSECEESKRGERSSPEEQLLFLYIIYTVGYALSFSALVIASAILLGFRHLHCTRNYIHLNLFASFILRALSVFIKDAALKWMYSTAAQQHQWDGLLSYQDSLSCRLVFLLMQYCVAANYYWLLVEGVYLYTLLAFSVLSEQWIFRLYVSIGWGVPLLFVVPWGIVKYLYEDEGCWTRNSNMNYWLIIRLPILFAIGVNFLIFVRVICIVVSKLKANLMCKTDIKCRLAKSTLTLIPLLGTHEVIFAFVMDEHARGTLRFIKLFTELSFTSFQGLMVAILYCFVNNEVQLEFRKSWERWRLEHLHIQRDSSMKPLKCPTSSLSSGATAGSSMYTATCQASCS

The experiment addresses Glucagon-like peptide 1 receptor (Homo sapiens, UniProt P43220). As to the kind of experiment: Agonist activity at human GLP-1R expressed in HEK293 cells assessed as increase in intracellular cAMP level incubated for 30 mins by HTRF assay. It is filed as functional, cell-based. A general note: Cyclic AMP is a second messenger, typically raised through Gs and lowered through Gi signalling.
For `COc1cc(C(=O)O)cc2c1nc(Cc1cc(F)c(-c3cccc(OCc4ccc(C#N)cc4C)n3)cc1F)n2C[C@@H]1CCO1`, the EC50 came to 0.3 nM.

With `COCCOc1cc(C(=O)O)cc2c1nc(Cc1cc(F)c(-c3cccc(OCc4ccc(C#N)cc4F)n3)cc1F)n2C[C@@H]1CCO1`, the EC50 is 0.297 nM.

Take `COc1cc(C(=O)O)cc2c1nc(Cc1cc(C)c(-c3cccc(OCc4ccc(C#N)cc4F)n3)cc1F)n2C[C@@H]1CCO1`: the 50% effective concentration (EC50) turned out to be 0.291 nM.

In the case of `COc1cc(C(=O)O)cc2c1nc(Cc1cc(F)c(-c3cccc(OCc4ccc(C#N)cc4F)n3)cc1F)n2C[C@@H]1CCO1`, the EC50 worked out at 0.221 nM.

In the case of `COc1cc(C#N)ccc1COc1cccc(-c2cc(F)c(Cc3nc4c(OC)cc(C(=O)O)cc4n3C[C@@H]3CCO3)cc2F)n1`, the EC50 is 0.167 nM.

In the case of `COc1cc(C(=O)O)cc2c1nc(Cc1cc(F)c(-c3cccc(OCc4ccc(-n5cncn5)cc4)n3)cc1F)n2C[C@@H]1CCO1`, the concentration giving a half-maximal response (EC50) stood at 0.402 nM.
